According to patent publication US20130116286A1, “DROXIDOPA AND PHARMACEUTICAL COMPOSITION THEREOF FOR THE TREATMENT OF NEURALLY MEDIATED HYPOTENSION” (Chelsea Therapeutics, Inc., priority 2007, published 2013):

Key:
plasma norepinephrine = assay: Plasma norepinephrine concentration after dosing with droxidopa or droxidopa combinations in rats; type: in vivo, male Sprague Dawley rats; settings: versus vehicle alone, 2 hours post-dosing, rat
Procedure: The pharmacokinetic properties of droxidopa combinations useful in the methods of the invention were evaluated in male Sprague Dawley rats.
Administration of droxidopa combinations was seen to affect plasma norepinephrine concentration in comparison to administration of droxidopa alone. Formulation 0 indicates administration of the vehicle alone without droxidopa or a droxidopa combination of the invention and provides a baseline comparative of plasma norepinephrine levels in an untreated subject.

MAO-A than MAO-B = settings: cited from earlier work

| SMILES | increase in plasma norepinephrine concentration (plasma norepinephrine) [fold] | selectivity for MAO-A than MAO-B (MAO-A than MAO-B) |
| --- | --- | --- |
| NC(C(=O)O)C(O)c1ccc(O)c(O)c1 (stereo not drawn) [droxidopa, threo-3-(3,4-dihydroxyphenyl)serine] | ~5 |  |
| O=C(NCCN1CCOCC1)c1ccc(Cl)cc1 [moclobemide] |  | approximately three times more selective for MAO-A than MAO-B |
